Reference: ChEMBL document CHEMBL3301472, “MMV Malaria Box HIV and cytotoxicity screening”

Assays:
Format in all cases: toxicity, cell-based
[1] = MMV: MTT Cytotoxicity Assay Day 7 pi of Assay #10 (NO washout), U87-CD4-CCR5 cells, % cell death @ 5mM compound; conditions: human, u87-cd4-ccr5, 5000 µM
[2] = MMV: MTT Cytotoxicity Assay Day 7 pi of Assay #11 (NO washout), U87-CD4-CXCR4 cells, % cell death @ 5mM compound; conditions: human, u87-cd4-cxcr4, 5000 µM
[3] = MMV: MTT Cytotoxicity Assay Day 3 pi, U87-CD4-CXCR4 cells, % cell death @ 5mM compound; conditions: human, u87-cd4-cxcr4, 5000 µM
[4] = MMV: MTT Cytotoxicity Assay Day 7 pi of Assay #6 (compound washed out Day 1 pi), U87-CD4-CCR5 cells, % cell death @ 5mM compound; conditions: human, u87-cd4-ccr5, 5000 µM
[5] = MMV: MTT Cytotoxicity Assay Day 3 pi, U87-CD4-CCR5 cells, % cell death @ 5mM compound; conditions: human, u87-cd4-ccr5, 5000 µM
[6] = MMV: MTT Cytotoxicity Assay Day 7 pi of Assay #7 (compound washed out Day 1 pi), U87-CD4-CXCR4 cells, % cell death @ 5mM compound; conditions: human, u87-cd4-cxcr4, 5000 µM

SMILES | % Cell Death [1] | % Cell Death [2] | % Cell Death [3] | % Cell Death [4] | % Cell Death [5] | % Cell Death [6]
OCCNc1nc(Nc2ccc(Cl)c(Cl)c2)nc2ccccc12 | 51 | -59 | 30 | -18 | 41 | -3
COc1ccc(C=C2SC(=N)N(c3ccccc3OC)C2=O)cc1 | 143 | 93 | 101 | 100 | 100 | 95
CCN(Cc1ccccc1)C1CCN(Cc2cc(Br)ccc2O)CC1.O=C(O)C(=O)O | 20 | -25 | 27 | 6 | -5 | 0
CC1CCN(Cc2c(O)ccc3cc(-c4nc5ccccc5s4)c(=O)oc23)CC1 | 30 | 9 | 33 | 16 | 12 | -13
COc1ccc(OC)c(C2C3=C(CC(C)(C)CC3=O)N(c3ccc(Cl)c(Cl)c3)C3=C2C(=O)CC(C)(C)C3)c1 | -4 | 3 | 31 | 28 | 9 | 5
CCOC(=O)c1cnc2c(C)cccc2c1Nc1ccc(C(C)=O)cc1 | 69 | 80 | 76 | 49 | 70 | 78
Cc1ccc(Cl)cc1N1CCN(CCCNC(=O)C2CCN(c3nc4ccccc4[nH]3)CC2)CC1 | 91 | 57 | 6 | 31 | 86 | -32
CN(N=O)C1=C(NC2CCCCC2)C(=O)c2ccccc2C1=O | 30 | 15 | 45 | -53 | 41 | 36
OC1=C2C(=Nc3ccccc3SC2c2ccc(Br)cc2)c2ccccc21 (centres undefined) | 30 | 0 | 31 | -10 | 11 | 7
Cl.c1ccc2c(NCCCCCCNc3c4c(nc5ccccc35)CCCC4)c3c(nc2c1)CCCC3 | 34 | 9 | 32 | -1 | 12 | -18
CCOC(=O)C1=CN(C)C=C(C(=O)OCC)C1c1cc(Br)c(OCC)c(OC)c1 | 103 | 6 | 32 | 37 | 80 | 99
O=C(c1ccccc1F)N(Cc1ccc(Cl)cc1)c1ccccn1 | 87 | 71 | 44 | 22 | 50 | -34
COc1ccc(C(O)(CCC(C)C)C(CN2CCOCC2)c2ccc(Cl)cc2)cc1.Cl (centres undefined) | 102 | 47 | 55 | 48 | 72 | 4
COc1ccccc1N1CCN(C(CNS(=O)(=O)c2ccc(Cl)cc2)c2cccnc2)CC1 (centres undefined) | 130 | 105 | 94 | 83 | 109 | 81
COc1ccc(C2N(C)c3ccccc3N2C)cc1 | 3 | 30 | -15 | 16 | -7 | -14
COc1ccc(C2=C(c3ccc(OC)cc3)C3(c4ccccc4)C(=O)C2(c2ccccc2)C2C(=O)N(c4ccc(C)cc4)C(=O)C23)cc1 (centres undefined) | 41 | -6 | 28 | -10 | -42 | 13
CCOc1ccc(-c2nc(NC(=O)c3cccc(S(C)(=O)=O)c3)sc2C)cc1 | 2 | 29 | -6 | 0 | 5 | -38
Cc1ccc(-c2cc3nc4c(c(O)n3n2)CCCC4)cc1 | 113 | 97 | 56 | 24 | 70 | 52
COc1ccc(-c2cc3c(nn2)-c2ccccc2C3=O)cc1 | 75 | 101 | 49 | 30 | 71 | 13
CCCCCCc1cc(O)c2c3c(c(=O)oc2c1)CCC(C)C3 (centres undefined) | 26 | 9 | 20 | 16 | 16 | 16

SMILES | % Cell Death [1] | % Cell Death [2] | % Cell Death [3] | % Cell Death [4] | % Cell Death [5] | % Cell Death [6]
O=C(NC1CCN(Cc2ccccc2)CC1)c1cc2nc(-c3ccc(Cl)s3)cc(C(F)(F)F)n2n1 | 46 | 11 | 31 | -12 | -2 | -15
CC(C)=CCN1CCC(C(=O)Nc2ccc(-c3nc4ccccc4[nH]3)cc2)CC1 | 11 | -26 | 22 | 6 | 10 | 4
CCOc1ccc(CN2CCN(CC(O)COc3ccc(OCC(O)CN4CCN(Cc5ccc(OCC)cc5)CC4)cc3)CC2)cc1 (centres undefined) | 115 | -7 | 50 | 65 | -5 | 21
COc1ccc(CCn2c(=N)c(C(=O)NCc3cccnc3)cc3c(=O)n4cccc(C)c4nc32)cc1 | 4 | 8 | 15 | 32 | 1 | 35
Cc1ccc(CN2CCC(C(=O)Nc3ccc(-c4cc5ccccc5[nH]4)cc3)CC2)o1 | 65 | 22 | 20 | 31 | 33 | 20
COc1ccccc1CNC(=O)CCn1c(=O)[nH]c2ccsc2c1=O | -16 | -15 | 10 | -12 | 34 | -19
CCCCc1c(C)nc2c(OC)cccc2c1O | 74 | 46 | 52 | 43 | 0 | 17
CCCCNc1nc(NC(C)(C)C)nc(NC(C)(C)C)n1 | -7 | -2 | 61 | 2 | -21 | 18
O=C(O)C(=O)O.Oc1ccc(Br)cc1CN1CCN(Cc2cccc(F)c2)CC1 | 103 | 112 | 101 | 94 | 107 | 86
O=C(NC1CCN(Cc2ccccc2)CC1)c1cc(-c2ccncc2)nc2ccc(Cl)cc12 | 2 | 58 | 31 | -18 | 13 | 8
Oc1c2c(nc3cc(-c4ccccc4)nn13)CCCC2 | 1 | -22 | 6 | 26 | 37 | -10
CCOc1cc2c(cc1OCC)C(c1cc(Cl)ccc1O)NCC2 (centres undefined) | 17 | 21 | 42 | -26 | 20 | 3
Nc1ccc(-c2nc3cc(Cc4ccc5[nH]c(-c6ccc(N)cc6)nc5c4)ccc3[nH]2)cc1 | 98 | 110 | 57 | 69 | 88 | 82
CCOC(=O)c1ccc2[nH]c(-c3ccccc3)cc(=O)c2c1 | 129 | 99 | 99 | 98 | 104 | 96
Oc1ccccc1CN1CCC2(CCCN(Cc3ccccc3F)C2)C1 (centres undefined) | 44 | 39 | 15 | 36 | -2 | 1
COc1ccc(Nc2cc(C)nc(NCc3ccccc3)n2)cc1 | 92 | 73 | 94 | 30 | 41 | 30
O=C(Nc1ccc(F)c(Cl)c1)Nc1ccc(Cl)c(Cl)c1 | 22 | -12 | 4 | -6 | -19 | -9
CC(=O)NCCc1nc2ccccc2n1Cc1ccc(C(C)C)cc1 | 13 | 14 | 15 | 34 | -2 | -3
FC(F)(F)c1cccc(CNC2CCN(CCc3ccccc3)CC2)c1 | -16 | 24 | 31 | 30 | -16 | -15
